EC50 data for one compound are collected here from patent US9499554B2, “Anti-influenza compositions and methods” (priority 2013, dated 2016).

Structures are written as SMILES. Converted amounts (≈) assume the structure as drawn. Where two headings read alike, the source gives them in different places.

Assay [1] relates to Influenza A H5N1 VN/1203/2004 Hybrid (on H1N1 backbone). The experiment in a line: microbe, parasite or virus in culture. It is filed as cell-based. The conditions noted are these: Influenza A virus, read-out: EC50, Visual CPE Assay.
The test system is the same in assay [2]. As to the kind of experiment: microbe, parasite or virus in culture. To be noted: Influenza A virus. It is filed as cell-based.

For the compound `Nc1ncnc2c([C@@H]3N[C@H](CO)[C@@H](O)[C@H]3O)c[nH]c12` [compound 1, (2S,3S,4R,5R)-2-(4-Amino-5H-pyrrolo[3,2-d]pyrimidin-7-yl)-5-(hydroxymethyl)pyrrolidine-3,4-diol], the EC50 in assay [1] is 0.63 µg/mL (≈ 2.37 µM); in assay [2] (MDCK, read-out: EC50, antiviral activity in MDCK cells), 0.99 µg/mL (≈ 3.73 µM); in assay [2] (read-out: EC50, Neutral Red Uptake Assay), 0.99 µg/mL (≈ 3.73 µM).

A word on the EC50: it is the concentration at which the effect is half-maximal.
